According to patent US9943501B2 (KOJUN JAPAN CO., LTD., priority 2014, dated 2018):

How the values were obtained:
[1] = tested on: C57BL/6J mice fed with a high-fat diet; assay: Adiponectin in blood of dietary-induced obesity mouse model; assay type: in vivo; details: 85 days, FIG. 15
Text: Adiponectin is a secretory protein related to dysmetabolic syndrome such as insulin resistance, diabetes mellitus or arteriosclerosis. Adiponectin-deficient mice have the properties of being more likely to develop insulin resistance and being more likely to be affected by arteriosclerosis than wild-type mice. In humans as well, it is known that lowered adiponectin concentrations are related to dysmetabolic syndrome such as diabetes mellitus and arteriosclerosis. Thus, the dietary-induced obesity mouse models of Example 9 were subjected to the test of measuring the amount of adiponectin in blood.
For each individual of the male C57BL/6J mice after a lapse of 85 days into the test of Example 9, blood was collected from the abdominal vena cava using a syringe supplemented with heparin under anesthesia with 2% isoflurane. The amount of blood collected was set to approximately 0.8 mL. The collected blood was stored under ice cooling until centrifugation. After centrifugation (conditions: 4° C., approximately 1800×g, 10 min), the upper layer was recovered to obtain plasma. The plasma was dispensed to sampling tubes and cryopreserved until measurement. The mouse adiponectin concentration contained in the mouse plasma obtained from each individual was measured using a commercially available ELISA kit, and the average adiponectin concentration of each test group was determined. […]

[2] = tested on: C57BL/6J mice fed with a high-fat diet; assay: Amounts of subcutaneous fat and visceral fat in dietary-induced obesity mouse model; assay type: in vivo; details: 85 days, relative to increase in control group over normal group
Protocol: For each individual of the male C57BL/6J mice after lapse of 85 days into the test of Example 9, blood was collected under anesthesia with 2% isoflurane, and the mice were then euthanized. Inguinal subcutaneous fat, epididymal fat, perirenal fat, and mesenteric fat were collected from each individual. The weight of each fat was measured, and the average fat weights of each test group were determined.
The ordinate of the drawing depicts the measured weight (g) of each fat tissue. Each bar of the bar graph indicates the normal group, the control group, the 5H4PB 0.037 μg/kg/day administration group, the 5H4PB 0.01 mg/kg/day administration group, the rosiglitazone 0.037 μg/kg/day administration group, and the rosiglitazone 10 mg/kg/day administration group from the left to the right. […] Specifically, increase in the amount of each fat tissue was inhibited by approximately 35% for the inguinal subcutaneous fat, approximately 18% for the epididymal fat, approximately 13% for the perirenal fat, and approximately 16% for the mesenteric fat in the test group administered 0.037 μg/kg/day of 5H4PB, while increase in the amount of each fat tissue was inhibited by approximately 34% for the inguinal subcutaneous fat, approximately 15% for the epididymal fat, approximately 13% for the perirenal fat, and approximately 40% for the mesenteric fat in the test group administered 0.01 […] of 5H4PB, with respect to the amount of each fat tissue increased in the control group due to the high-calorie diet (the value determined by subtracting the fat tissue weight of the normal group from the fat tissue weight of the control group). Thus, 5H4PB administered at a low dose was confirmed to have subcutaneous fat and visceral fat accumulation inhibitory effects.

[3] = 0.01 μg/kg/day (so in the source)

O=C1C=C(c2ccccc2)C(O)O1 (stereo not shown) [5H4PB, 5-hydroxy-4-phenylbutenolide]
adiponectin concentration in mouse plasma compared with the control group (t test) ([1]; 0.01 mg/kg/day): significant rise in adiponectin concentration | adiponectin concentration in mouse plasma compared with the control group ([1]; 5H4PB administration groups (0.037 μg/kg/day and 0.01 mg/kg/day)): confirmed to elevate | increase in the amount of epididymal fat inhibited [2, 3]: approximately 15% | increase in the amount of inguinal subcutaneous fat inhibited [2, 3]: approximately 34% | increase in the amount of mesenteric fat inhibited [2, 3]: approximately 40% | increase in the amount of perirenal fat inhibited [2, 3]: approximately 13% | increase in the amount of epididymal fat inhibited ([2]; 0.037 μg/kg/day): approximately 18% | increase in the amount of inguinal subcutaneous fat inhibited ([2]; 0.037 μg/kg/day): approximately 35% | increase in the amount of mesenteric fat inhibited ([2]; 0.037 μg/kg/day): approximately 16% | increase in the amount of perirenal fat inhibited ([2]; 0.037 μg/kg/day): approximately 13%
